Measurements taken from patent publication US20260217765A1, “NOVEL ANTIMICROBIAL PEPTIDE DESIGNED FROM DUCK-DERIVED ANTIMICROBIAL PEPTIDE ANDUSE THEREOF” (INDUSTRY-ACADEMIC COOPERATION FOUNDATION, CHOSUN UNIVERSITY, priority 2023, published 2026).
Converted amounts (≈) assume the structure as drawn. Peptide text beside a SMILES is read from it.

Assays:
[1] = tested on: Acinetobacter baumannii_isolate 10; format: cell-based, Acinetobacter baumannii; conditions: isolate 10, 24 h
Method: (§1) Specifically, among the bacterial strains listed in Table 2, those known to form biofilms well (Acinetobacter baumannii KCTC 2508, Acinetobacter baumannii isolate 10, and isolate 14) were cultured in the appropriate media to the mid-log phase and diluted to a cell concentration of 5×10^4 cells/100 µL, followed by inoculation into microplates (SPL). Subsequently, the peptides prepared in <Example 1> were serially 10-fold diluted with 10 mM sodium phosphate buffer (pH 7.2), and 10 μL of each dilution was added to each well. The plates were then incubated at 37° C. for 24 hours. After completely removing the supernatant, the plates were fixed with 100% methanol for 15 minutes, stained with crystal violet staining solution for 1 hour, washed three times, and then the stain was solubilized with 95% ethanol. Absorbance was measured at 595 nm using a microplate reader to determine the MBIC values for each bacterial strain.

[2] = tested on: Acinetobacter baumannii_isolate 14; format: cell-based, Acinetobacter baumannii; conditions: isolate 14, 24 h
Method: as §1

[3] = tested on: Acinetobacter baumannii KCTC 2508; format: cell-based; conditions: KCTC 2508, 24 h
Method: as §1

[4] = tested on: Acinetobacter baumannii_isolate 12 (antibiotic-resistant); format: cell-based, Acinetobacter baumannii; conditions: isolate 12 (antibiotic-resistant)
In short: (§2)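 Absorbance at 600 nm after 18 hours at 37° C defined the MIC, taken as the lowest peptide concentration with no visible bacterial growth. Inocula were mid-log cultures at 2×10^4 cells/100 μL receiving 2-fold serial peptide dilutions.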

[5] = tested on: Acinetobacter baumannii_isolate20 (antibiotic-resistant); format: cell-based, Acinetobacter baumannii; conditions: isolate20 (antibiotic-resistant)
In short: as §2

[6] = tested on: Acinetobacter baumannii_isolate 25 (antibiotic-resistant); format: cell-based, Acinetobacter baumannii; conditions: isolate 25 (antibiotic-resistant)
In short: as §2

[7] = tested on: Acinetobacter baumannii_isolate 22 (antibiotic-resistant); format: cell-based, Acinetobacter baumannii; conditions: isolate 22 (antibiotic-resistant)
In short: as §2

[8] = tested on: Acinetobacter baumannii_isolate 3 (antibiotic-resistant); format: cell-based, Acinetobacter baumannii; conditions: isolate 3 (antibiotic-resistant)
In short: as §2

[9] = tested on: Acinetobacter baumannii_isolate 10 (antibiotic-resistant); format: cell-based, Acinetobacter baumannii; conditions: isolate 10 (antibiotic-resistant)
In short: as §2

[10] = tested on: Acinetobacter baumannii_isolate 4 (antibiotic-resistant); format: cell-based, Acinetobacter baumannii; conditions: isolate 4 (antibiotic-resistant)
In short: as §2

Question: For `CC[C@H](C)[C@H](NC(=O)[C@H](C)NC(=O)[C@H](CC(C)C)NC(=O)[C@@H]1CCCN1C(=O)[C@@H](NC(=O)[C@H](CC(C)C)NC(=O)[C@H](CCC(N)=O)NC(=O)[C@H](Cc1c[nH]c2ccccc12)NC(=O)[C@H](C)NC(=O)[C@H](CCCNC(=N)N)NC(=O)[C@@H](N)CCCCN)C(C)C)C(=O)N[C@@H](CCCCN)C(=O)N[C@H](C(=O)N[C@@H](Cc1ccc(O)cc1)C(=O)N[C@@H](CCCNC(=N)N)C(=O)N[C@@H](C)C(=O)N[C@@H](Cc1c[nH]c2ccccc12)C(=O)N[C@@H](CCCCN)C(=O)N[C@@H](CCCNC(=N)N)C(=O)N[C@@H](CCCNC(=N)N)C(N)=O)[C@@H](C)CC` [dCATH-A1] (H-KRAWQLVPLAIKIYRAWKRR-NH2; N-terminus assumed), which MBIC [1] is on record?
Answer: Its MBIC is 4 µM.

Question: What about the MBIC [2] of the same molecule?
Answer: Its MBIC is 2 µM.

Question: What about the MBIC [3] of the same molecule?
Answer: Its MBIC is 4 µM.

Question: What about the MIC [4] of the same molecule?
Answer: The MIC was 2 µM (≈ 5.1 µg/mL).

Question: What about the MIC [5] of the same molecule?
Answer: The MIC was 1 µM (≈ 2.55 µg/mL).

Question: What about the MIC [6] of the same molecule?
Answer: The MIC was 2 µM (≈ 5.1 µg/mL).

Question: What about the MIC [7] of the same molecule?
Answer: The MIC was 2 µM (≈ 5.1 µg/mL).

Question: And the MIC [8]?
Answer: The MIC was 2 µM (≈ 5.1 µg/mL).

Question: And the MIC [9]?
Answer: Its MIC is 2 µM (≈ 5.1 µg/mL).

Question: What about the MIC [10] of the same molecule?
Answer: The MIC was 2 µM (≈ 5.1 µg/mL).

Question: For `CC[C@H](C)[C@H](NC(=O)[C@H](C)NC(=O)[C@H](CC(C)C)NC(=O)[C@H](CCCCN)NC(=O)[C@@H](NC(=O)[C@H](CC(C)C)NC(=O)[C@H](CCC(N)=O)NC(=O)[C@H](C)NC(=O)[C@H](C)NC(=O)[C@H](CCCNC(=N)N)NC(=O)[C@@H](N)CCCCN)C(C)C)C(=O)N[C@@H](CCCCN)C(=O)N[C@H](C(=O)N[C@@H](Cc1ccc(O)cc1)C(=O)N[C@@H](CCCNC(=N)N)C(=O)N[C@@H](C)C(=O)N[C@@H](Cc1c[nH]c2ccccc12)C(=O)N[C@@H](CCCCN)C(=O)N[C@@H](CCCNC(=N)N)C(=O)N[C@@H](CCCNC(=N)N)C(N)=O)[C@@H](C)CC` [dCATH-A4] (H-KRAAQLVKLAIKIYRAWKRR-NH2; N-terminus assumed), which MBIC [1] is on record?
Answer: The MBIC was 4 µM.

Question: What about the MBIC [2] of the same molecule?
Answer: The MBIC was 4 µM.

Question: And the MBIC [3]?
Answer: Its MBIC is 4 µM.

Question: And the MIC [4]?
Answer: Its MIC is 2 µM (≈ 4.94 µg/mL).

Question: What about the MIC [5] of the same molecule?
Answer: Its MIC is 2 µM (≈ 4.94 µg/mL).

Question: What about the MIC [6] of the same molecule?
Answer: Its MIC is 2 µM (≈ 4.94 µg/mL).

Question: What about the MIC [7] of the same molecule?
Answer: Its MIC is 2 µM (≈ 4.94 µg/mL).

Question: And the MIC [8]?
Answer: The MIC was 2 µM (≈ 4.94 µg/mL).

Question: And the MIC [9]?
Answer: Its MIC is 4 µM (≈ 9.87 µg/mL).

Question: And the MIC [10]?
Answer: The MIC was 2 µM (≈ 4.94 µg/mL).

Question: How did the MBIC [1] turn out when `CC[C@H](C)[C@H](NC(=O)[C@H](C)NC(=O)[C@H](CC(C)C)NC(=O)[C@@H]1CCCN1C(=O)[C@@H](NC(=O)[C@H](CC(C)C)NC(=O)[C@H](CCC(N)=O)NC(=O)[C@H](C)NC(=O)[C@H](C)NC(=O)[C@H](CCCNC(=N)N)NC(=O)[C@@H](N)CCCCN)C(C)C)C(=O)N[C@@H](CCCCN)C(=O)N[C@H](C(=O)N[C@@H](Cc1ccc(O)cc1)C(=O)N[C@@H](CCCNC(=N)N)C(=O)N[C@@H](C)C(=O)N[C@@H](Cc1c[nH]c2ccccc12)C(=O)N[C@@H](CCCCN)C(=O)N[C@@H](CCCNC(=N)N)C(=O)N[C@@H](CCCNC(=N)N)C(N)=O)[C@@H](C)CC` [dCATH-A3] (H-KRAAQLVPLAIKIYRAWKRR-NH2; N-terminus assumed) was run?
Answer: The MBIC was 2 µM.

Question: And the MBIC [2]?
Answer: Its MBIC is 1 µM.

Question: And the MBIC [3]?
Answer: Its MBIC is 2 µM.

Question: What about the MIC [4] of the same molecule?
Answer: The MIC was 1 µM (≈ 2.44 µg/mL).

Question: What about the MIC [5] of the same molecule?
Answer: Its MIC is 1 µM (≈ 2.44 µg/mL).

Question: And the MIC [6]?
Answer: The MIC was 1 µM (≈ 2.44 µg/mL).

Question: What about the MIC [7] of the same molecule?
Answer: Its MIC is 1 µM (≈ 2.44 µg/mL).

Question: And the MIC [8]?
Answer: Its MIC is 1 µM (≈ 2.44 µg/mL).

Question: What about the MIC [9] of the same molecule?
Answer: The MIC was 2 µM (≈ 4.87 µg/mL).

Question: And the MIC [10]?
Answer: The MIC was 1 µM (≈ 2.44 µg/mL).

Question: Which results are given for `CC[C@H](C)[C@H](NC(=O)[C@H](C)NC(=O)[C@H](CCCCN)NC(=O)[C@H](CCCCN)NC(=O)[C@@H](NC(=O)[C@H](CC(C)C)NC(=O)[C@H](CCC(N)=O)NC(=O)[C@H](C)NC(=O)[C@H](C)NC(=O)[C@H](CCCNC(=N)N)NC(=O)[C@@H](N)CCCCN)C(C)C)C(=O)N[C@@H](CCCCN)C(=O)N[C@H](C(=O)N[C@@H](Cc1ccc(O)cc1)C(=O)N[C@@H](CCCNC(=N)N)C(=O)N[C@@H](C)C(=O)N[C@@H](Cc1c[nH]c2ccccc12)C(=O)N[C@@H](CCCCN)C(=O)N[C@@H](CCCNC(=N)N)C(=O)N[C@@H](CCCNC(=N)N)C(N)=O)[C@@H](C)CC` [dCATH-A5] (H-KRAAQLVKKAIKIYRAWKRR-NH2; N-terminus assumed)?
Answer: MBIC [1]: 2 µM; MBIC [2]: 1 µM; MBIC [3]: 2 µM; MIC [4]: 1 µM (≈ 2.48 µg/mL); MIC [5]: 1 µM (≈ 2.48 µg/mL); MIC [6]: 1 µM (≈ 2.48 µg/mL); MIC [7]: 2 µM (≈ 4.97 µg/mL); MIC [8]: 1 µM (≈ 2.48 µg/mL); MIC [9]: 1 µM (≈ 2.48 µg/mL); MIC [10]: 1 µM (≈ 2.48 µg/mL)
